Measurements reported in patent US20030104393A1, “Blood assessment of injury” (priority 2000, published 2003).

Experiments:
brain = experiment: Genes induced in the brain following kainic acid-induced seizures (microarray); assay type: in vivo, rat; design: key: NC = No Change
Description: (§1) Status epilepticus is produced by intraperitoneally injecting a glutamate analogue/excitotoxin, kainic acid (10 mg/kg i.p.). Animals with kainate-induced seizures are observed following drug administration to ensure that they continue to have complex seizures over a 30 minute period.
All animals are allowed to survive for 24 hours following each treatment. At that time they are deeply anesthetized with ketamine (100 mg/kg) and xylazine (20 mg/kg) given intraperitoneally. Once anesthetized, the chest is opened and a direct cardiac puncture performed with a syringe and 10 cc of blood is aspirated. Immediately following removal of the blood, the animal is decapitated while deeply anesthetized and the brain removed.
One day after hypoxia, status epilepticus, hypoglycemia, ischemic stroke, and hemorrhagic stroke are produced in adult rats, RNA or protein is isolated from the blood cells and from the brains of the animals described in Example 1. The pattern of genes or proteins expressed in the blood cells following each of these types of injury—hypoxia, status epilepticus, hypoglycemia, ischemic stroke, and hemorrhagic stroke is captured on a commercially available microarray (Affymetrix chip). The pattern of gene or protein expression is defined using an expression method, which then forms a genomic or proteomic organ injury database, which is used in assessing injury.
Note that the genes induced in the blood are different from the genes induced in the brain. Therefore, different organs express different genes. In addition, the genes induced by hypoxia in the blood are different from the genes induced by hypoxia in the brain. That is, the same stimulus induces different genes in different organs. Lastly, even though similar genes are induced in the brain by ischemia (stroke) and kainic acid-induced seizures, there are many differences in the gene expression between the two. Therefore, the pattern of gene expression in the brains of ischemic animals is distinctive from the pattern of expression of the kainate animals, and this pattern can be used to diagnose the different conditions of stroke and status epilepticus, even though many of the same genes are induced in the two conditions.
In further support, the following Tables 5 and 6 list those genes induced in the brain following stroke, kainic induced seizures, and hypoxia as compared with untouched controls and sham-operated controls.

neurons = experiment: Status epilepticus produced by kainic acid: neuronal injury; assay type: in vivo, rat; settings: kainic acid 10 mg/kg i.p., 24 hours later
Description: as §1

C=C(C)[C@H]1CN[C@H](C(=O)O)[C@H]1CC(=O)O [kainate, kainic acid]
Kainic Acid Seizure (fold change) (brain; brain, D29769_at bone morphogenic protein-7): NC
Kainic Acid Seizure (fold change) (brain; brain, J03624_at Rat galanin (a neuropeptide) RNA): 3 fold change
Kainic Acid Seizure (fold change) (brain; brain, L20913_s_at vascular endothelial growth factor form 3 RNA): NC
Kainic Acid Seizure (fold change) (brain; brain, L32591RNA_g GADD45 RNA): 3 fold change
Kainic Acid Seizure (fold change) (brain; brain, L46593cds_at small proline-rich protein (spr) gene): 4 fold change
Kainic Acid Seizure (fold change) (brain; brain, M55534RNA_s Rat alpha-crystallin b chain RNA): 2 fold change
Kainic Acid Seizure (fold change) (brain; brain, M60616_at Rat collagenase (UMRCase) RNA): NC
Kainic Acid Seizure (fold change) (brain; brain, M63282_at Rat leucine zipper protein RNA): NC
Kainic Acid Seizure (fold change) (brain; brain, M90661_at Rattus norvegicus insulin receptor-related receptor-alpha subunit RNA): NC
Kainic Acid Seizure (fold change) (brain; brain, RC_AA891041 EST): NC
Kainic Acid Seizure (fold change) (brain; brain, U13396_at protein-tyrosine kinase (JAK2) RNA): NC
Kainic Acid Seizure (fold change) (brain; brain, U16674_at interleukin-12p40 RNA): NC
Kainic Acid Seizure (fold change) (brain; brain, U49930_g_at ICE-like cysteine protease (Lice) RNA): 2.7 fold change
Kainic Acid Seizure (fold change) (brain; brain, U77829RNA_s Rattus norvegicus gas-5 growth arrest homolog NCn-translated RNA sequence): 3.4 fold change
Kainic Acid Seizure (fold change) (brain; brain, U88572_at AMPA receptor interacting protein GRIP RNA): 3.5 fold change
Kainic Acid Seizure (fold change) (brain; brain, U099870_at Vmajor vault protein RNA): 2.5 fold change
Kainic Acid Seizure (fold change) (brain; brain, Y10619cds_at transcriptional regulator, Relax): 3.5 fold change
Kainic Acid Seizure (fold change) (brain; brain, a30543cds_s_ p-Meta-a RNA for CD44 surface protein from patent WO9117248): 4.4 fold change
Kainic Acid Seizure (fold change) (brain; brain, ab005900_at endothelial receptor for oxidized low density): NC
Kainic Acid Seizure (fold change) (brain; brain, af00898_at p58/p45 RNA, alternatively spliced form clone H): 3.3 fold change
Kainic Acid Seizure (fold change) (brain; brain, af28784cds# glial fibrillary acidic proteins alpha and delta (GFAP) gene): 6.2 fold change
Kainic Acid Seizure (fold change) (brain; brain, af030089UTR# Rattus norvegicus activity and neurotransmitter-induced early gene): 4 fold change
Kainic Acid Seizure (fold change) (brain; brain, af036537_at homocysteine respondent protein): NC
Kainic Acid Seizure (fold change) (brain; brain, af036537 homocysteine respondent protein HCYP2 RNA): NC
Kainic Acid Seizure (fold change) (brain; brain, af053362_at Rattus norvegicus death effector domain-containing protein DEFT RNA): NC
Kainic Acid Seizure (fold change) (brain; brain, af074608RNA MHC class I antigen (RT1.EC2) gene): 3 fold change
Kainic Acid Seizure (fold change) (brain; brain, af083269_at p41-Arc RNA): 3.3 fold change
Kainic Acid Seizure (fold change) (brain; brain, af083269_g_at p41-Arc RNA): 3.3 fold change
Kainic Acid Seizure (fold change) (brain; brain, af086624_s_a serine threonine kinase (pim-3) RNA): NC
Kainic Acid Seizure (fold change) (brain; brain, af087944RNA monocyte differentiation antigen CD14 gene): 2.6 fold change
Kainic Acid Seizure (fold change) (brain; brain, af092090_at cp151 RNA): 2.7 fold change
Kainic Acid Seizure (fold change) (brain; brain, aj222813_s_a precursor interleukin 18 (IL-18)): 3.8 fold change
Kainic Acid Seizure (fold change) (brain; brain, d00913_g_at intercellular adhesion molecule-1): NC
Kainic Acid Seizure (fold change) (brain; brain, d8557s_at RYB-a): 3.5 fold change
Kainic Acid Seizure (fold change) (brain; brain, d17370_g_at cystathionine gamma-lyase): 3.8 fold change
Kainic Acid Seizure (fold change) (brain; brain, d89069_f_at inducible carbonyl reductase): NC
Kainic Acid Seizure (fold change) (brain; brain, d90404_at cathepsin C): 2.8 fold change
Kainic Acid Seizure (fold change) (brain; brain, d90404_g_at cathepsin C): NC
Kainic Acid Seizure (fold change) (brain; brain, j00780_at rat preprorelaxin RNA): NC
Kainic Acid Seizure (fold change) (brain; brain, j04563_at Rat cAMP phosphodiesterase RNA): 5.4 fold change
Kainic Acid Seizure (fold change) (brain; brain; j04792_at ornithine decarboxylase ODC) gene): 1.7 fold change
Kainic Acid Seizure (fold change) (brain; brain, m13979_at Rat brain and all other organ glucose-transporter protein RNA): 2.1 fold change
Kainic Acid Seizure (fold change) (brain; brain, m18330_at Rat protein kinase C delta subspecies): 3.3 fold change
Kainic Acid Seizure (fold change) (brain; brain, m19257_at Rat cysosolic retinol-binding protein (CRBP) RNA): 4 fold change
Kainic Acid Seizure (fold change) (brain; brain, m32062_at Rat Fc-gamma receptor RNA): 1.5 fold change
Kainic Acid Seizure (fold change) (brain; brain, m34253_g_at Rat-interferon regulatory factor1 (IRF-a) RNA): 3 fold change
Kainic Acid Seizure (fold change) (brain; brain, m60753_s_at catechol-O-methyltransferase RNA): 4.5 fold change
Kainic Acid Seizure (fold change) (brain; brain, m63122_at Rat tumor necrosis factor receptor (TNF receptor)): 2.8 fold change
Kainic Acid Seizure (fold change) (brain; brain, m80633_at Rat adenylyl cyclase type (IV) RNA): 5.2 fold change
Kainic Acid Seizure (fold change) (brain; brain, rc_A1014163 EST): 2.3 fold change
Kainic Acid Seizure (fold change) (brain; brain, rc_aa799323— EST): NC
Kainic Acid Seizure (fold change) (brain; brain, rc_aa799448 EST): NC
Kainic Acid Seizure (fold change) (brain; brain, rc_aa799686 EST): 6.3 fold change
Kainic Acid Seizure (fold change) (brain; brain, rc_aa799773 EST): 4.7 fold change
Kainic Acid Seizure (fold change) (brain; brain, rc_aa800701 EST): NC
Kainic Acid Seizure (fold change) (brain; brain, rc_aa800962 EST): NC
Kainic Acid Seizure (fold change) (brain; brain, rc_aa866443 EST): NC
Kainic Acid Seizure (fold change) (brain; brain, rc_aa875032 EST): NC
Kainic Acid Seizure (fold change) (brain; brain, rc_aa875126 EST): 8.7 fold change
Kainic Acid Seizure (fold change) (brain; brain, rc_aa891576 EST): NC
Kainic Acid Seizure (fold change) (brain; brain, rc_aa892750 EST): NC
Kainic Acid Seizure (fold change) (brain; brain, rc_aa892775 EST): 2.3 fold change
Kainic Acid Seizure (fold change) (brain; brain, rc_aa892851 EST): NC
Kainic Acid Seizure (fold change) (brain; brain, rc_aa900476 EST): NC
Kainic Acid Seizure (fold change) (brain; brain, rc_aa926129_ EST): 4.9 fold change
Kainic Acid Seizure (fold change) (brain; brain, rc_aa945737 EST): NC
Kainic Acid Seizure (fold change) (brain; brain, rc_aa946044 EST): 2.8 fold change
Kainic Acid Seizure (fold change) (brain; brain, rc_ai6i39302 EST): NC
Kainic Acid Seizure (fold change) (brain; brain, rc_ai070295 EST): 1.9 fold change
Kainic Acid Seizure (fold change) (brain; brain, rc_ai71962 EST): 1.9 fold change
Kainic Acid Seizure (fold change) (brain; brain, rc_ai169756 EST): 1.7 fold change
Kainic Acid Seizure (fold change) (brain; brain, rc_ai171966 EST): 3.8 fold change
Kainic Acid Seizure (fold change) (brain; brain, rc_ai176456 EST): 2.3 fold change
Kainic Acid Seizure (fold change) (brain; brain, rc_ai233219 EST): NC
Kainic Acid Seizure (fold change) (brain; brain, rc_ai638945 EST): NC
Kainic Acid Seizure (fold change) (brain; brain, rc_ai639042): NC
Kainic Acid Seizure (fold change) (brain; brain, rc_ai639161 EST): 7.5 fold change
Kainic Acid Seizure (fold change) (brain; brain, rc_ai639233 EST): NC
Kainic Acid Seizure (fold change) (brain; brain, rc_ai639372_ EST): NC
Kainic Acid Seizure (fold change) (brain; brain, rc_ai639402 EST): NC
Kainic Acid Seizure (fold change) (brain; brain, rc_ai639457 EST): NC
Kainic Acid Seizure (fold change) (brain; brain, s77494_s_at lysyl oxidase {3Nuntranslated region} [rats, aorta smooth muscle cell): NC
Kainic Acid Seizure (fold change) (brain; brain, s82649_s_at Narp = neuronal activity-regulated pentraxin): 2.2 fold change
Kainic Acid Seizure (fold change) (brain; brain, u04835_at CREMdeltaC—G gene): 2.1 fold change
Kainic Acid Seizure (fold change) (brain; brain, u05014_at Rattus norvegicus Sprague/Dawley PHAS-a): 3.9 fold change
Kainic Acid Seizure (fold change) (brain; brain, u23407_at Rattus norvegicus cellular retinoic acid-binding protein II (CRABP II) RNA): 9.2 fold change
Kainic Acid Seizure (fold change) (brain; brain, u33500_g_at retinol dehydrogenase type II RNA): NC
Kainic Acid Seizure (fold change) (brain; brain, u78102_at krox20 RNA): NC
Kainic Acid Seizure (fold change) (brain; brain, x54686cds_at pJunB gene): NC
Kainic Acid Seizure (fold change) (brain; brain, x60351cds_s alpha B-crystallin): 2.4 fold change
Kainic Acid Seizure (fold change) (brain; brain, x62951RNA_s R. norvegicus RNA (pBUS19) with repetitive): NC
Kainic Acid Seizure (fold change) (brain; brain, x63434_at R. norvegicus RNA for urokinase-type plasminogen activator): NC
Kainic Acid Seizure (fold change) (brain; brain, x63594cds_g_ RL/IF-1 RNA): NC
Kainic Acid Seizure (fold change) (brain; brain, x71127_at complement protein C1q beta): 2.7 fold change
Kainic Acid Seizure (fold change) (brain; brain, x71127_s_at complement protein C1q beta chain): 3.6 fold change
Kainic Acid Seizure (fold change) (brain; brain, x74565cds_g_ TBFII RNA for polypyrimidine tract binding): 5.4 fold change
Kainic Acid Seizure (fold change) (brain; brain, x95986RNA#1 CBR gene): NC
Kainic Acid Seizure (fold change) (brain; brain, x98377_at RNA for emerin): NC
Kainic Acid Seizure (fold change) (brain; brain, x99121RNA#1 RT6 gene, exon 2, testis): NC
Kainic Acid Seizure (fold change) (brain; brain, z22812_at interleukin-1 receptor type 2): NC
Neuronal injury (neurons): diffuse neuronal injury
